As usually defined, the melting point is the temperature of the solid-liquid transition.

Take `CCOC(=O)c1ccc(/C=C(\C)c2ccc(O)c(C3(C)CCCCC3)c2)cc1`: the melting point came to 124 °C.

`COCc1c(OC)cc(Cc2cnc(N)nc2N)cc1OC` registered a melting point of 221 to 223 °C.

Take `CC(C)N(CCCC(=NNC(N)=S)c1ccccc1)C(=O)C1CCCCC1`: the melting point was 112 to 114 °C.

With `CC(=O)N[C@@H]1CCN(S(=O)(=O)c2ccc(Cl)c(COc3cccc4c(-n5ccnc5)cc(C)nc34)c2Cl)C1`, the melting point was 246 °C.

Compound `CSC(=Cc1ccccc1N(Cc1ccccc1)c1c(Cl)cccc1Cl)S(C)=O` (centres undefined) came in with a melting point of 194 to 196 °C.

In the case of `CC(=O)NCCCCn1cnc2c(N)nc(C)c(C)c21`, the melting point is 217 to 219 °C.

Compound `O=c1[nH]c(=O)c2cc(C(c3ccccc3)n3cncn3)ccc2[nH]1` (centres undefined) returned a melting point of 281 °C.

Compound `COC(=O)[C@@H](Cc1ccc(-c2ncnc3c2ncn3[C@@H]2CCCCO2)cc1)NC(=O)OC(C)(C)C` yielded a melting point of 144 to 147 °C.

For the compound `Nn1c(=O)cc2n(C3CC3)c3cc(N4CCNCC4)c(F)cc3n2c1=O`, the melting point is 232 to 234 °C.

In turn, `CCOC(=O)c1cn([C@@H]2C[C@@H]2F)c2c(C)c(F)ccc2c1=O` came in with a melting point of 187 to 188 °C.

`O=C(O)Cc1csc(NC(=O)C(CC2CCCC2)c2ccc(Cl)c(Cl)c2)n1` (centres undefined) yielded a melting point of 100 to 102 °C.

With `COc1ccc(-c2nc(-c3ccc[nH]3)sc2-c2ccc(OC)cc2)cc1`, the melting point lay in the range of 132 to 134 °C.

The compound `COc1cc(C(C)C)c(NC(=O)CN2CCN(CCSc3nc4cccc(C(C)=O)c4o3)CC2)c(C(C)C)c1` had a melting point of 185 to 186 °C.

On to `CN(C)C(=O)c1ccc(CN(C)C(=O)C23CC4CC(CC(C4)C2)C3)s1`, for which the melting point is 145 to 146 °C.

Compound `c1cncc(-c2ccc3nnn(Cc4ccc5ncccc5c4)c3n2)c1` gave a melting point of 208 to 210 °C.

With `CCCCCN(CCC1CCCCC1)C(=O)NCc1ccncc1`, the melting point was 64.7 to 65.8 °C.

Turning to `O=C1CCC(c2ccccc2)(c2ccccc2)C2CN(C(Cc3ccccc3)=NCc3ccccc3Cl)CC12` (centres undefined), the melting point was found to be 192 °C.

With `CC(=O)Nc1ccc(F)cc1SCC#N`, the melting point lay in the range of 97 to 100 °C.

The compound `C[Si](C)(CCSCCNC(=O)n1cc(F)c(=O)[nH]c1=O)c1ccccc1` displayed a melting point of 90 to 91 °C.

`CCOC(=O)c1ccc(OCC2CCN(c3ccc(OC)nn3)CC2)cc1`: the melting point is 147 °C.

Compound `O=C(c1ccc(F)cc1)c1ccc(C(=O)c2ccc(F)cc2)s1` returned a melting point of 186 °C.

In the case of `Clc1cccc2c1Oc1ccccc1NC2`, the melting point lay in the range of 71 to 73 °C.

With `CC12CCC(C1)C1(C)Oc3ccc(C(O)COc4ccc(C(=O)O)cc4)cc3C21C` (centres undefined), the melting point came out at 123 °C.

For `COC[C@H]1CCCN1NC(=O)c1ccc(-c2[nH]nc3c2C(=O)c2c(NC(=O)NN4CCOCC4)cccc2-3)s1`, the melting point fell in the range of 266 to 267 °C.

Compound `O=C(NCc1ccc(Cl)cc1)c1cnc2c(O)cccc2c1O` had a melting point of 319 to 320 °C.

In the case of `Nc1c(-c2ccccc2)oc2c(CO)cccc2c1=O`, the melting point came to 192 °C.

The compound `CCOC(=O)CCNC(=O)c1n[nH]cc1NC(=O)c1cccc(C)n1` registered a melting point of 228 to 229 °C.

`O=S(=O)(Nc1cccc(CCOCc2csc(-c3ccccc3Cl)n2)c1)C(F)(F)F`: the melting point fell in the range of 86 to 87 °C.

With `CSC(=NC#N)NCCSc1ncccc1C(=O)c1ccccc1`, the melting point fell in the range of 180 to 181 °C.

`CC(C)(C)c1cc(SC2CC(=O)N(c3ccccc3)C2=O)cc(C(C)(C)C)c1O` (centres undefined) yielded a melting point of 134 to 137 °C.

Regarding `O=C(Nc1ccc(Br)cn1)Nc1cccc2c1C1CC3(CCN1C2=O)SCCS3` (centres undefined), the melting point was 240 °C.

Take `CNc1nc(N)nc2c1ncn2C1CC(F)C(CO)O1` (centres undefined): the melting point was 111 °C.

`Cc1ccc(C2NC(C(=O)O)C(C)(C)S2)cc1` (centres undefined) had a melting point of 89 to 90 °C.

Consider `COC(=O)Nc1coc2cc(NS(C)(=O)=O)c(Oc3ccccc3)cc2c1=O`, for which the melting point lay within 233 to 235 °C.

These data come from a melting point compilation (Tetko et al.; mined from patent text by program, amines drawn as free bases though some values may be those of a salt).
